A short description of the data set: gradient 5% acetonitrile 3 min, to 50% in 2 min, to 85% in 15 min, held 3 min, 100 µL/min. The settings on record: column: Zorbax Extend-C18 2.1 x 50 mm; eluents: water / acetonitrile, 0.1% formic acid. The essentials: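 Retention time was recorded from adduct peaks, which were picked computationally and each inspected manually. Pure standards ran in mixtures of ~100 molecules on HPLC coupled to a quadrupole time-of-flight mass spectrometer, in positive and negative ionization mode, through a Zorbax Extend-C18 column (2.1 × 50 mm, 1.8 μm) at 100 μL/min. Eluents were water and acetonitrile, each with 0.1% formic acid.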
As for `C=CCN1CCc2cccc3c2[C@H]1Cc1ccc(O)c(O)c1-3`, the RP-LC retention time is 659 s.

Turning to `CCCN1C(=O)c2c(C(=O)NCc3ccc(C)cc3)ncn2CC1(C)C(=O)NC1CCCC1` (stereo not drawn), the RP-LC retention time stood at 848 s.

`O=C(CSc1ccccn1)Nc1nc(-c2ccccc2)cs1` yielded an RP-LC retention time of 986 s.

Regarding `CCOC(=O)C(CC)n1nc2ccc(S(=O)(=O)N3CCC(C)CC3)cn2c1=O` (stereo not drawn), the RP-LC retention time was found to be 990 s.

Consider `CCN1CCCC1CNc1onc(-c2ccc(Cl)cc2)c1C(=O)OC` (stereo not drawn), for which the RP-LC retention time turned out to be 699 s.

With `COc1ccc(NC(=O)N2CCN(C3=CC4=NCC(C)N4C=N3)CC2)cc1` (stereo not drawn), the RP-LC retention time came out at 599 s.

`COc1ccc(N2CC(c3nc(-c4ccc(C)cc4)no3)CC2=O)cc1Cl` (stereo not drawn) came in with an RP-LC retention time of 1050 s.

As for `Cc1ccc(Cn2c(=O)n(CCNC(=O)c3cnccn3)c3ncccc32)cc1`, the RP-LC retention time was found to be 737 s.

As to `Cc1ccc(C)c(-n2c(-c3ccc(Cl)cc3)cn3c4c(=O)n(C)c(=O)n(C)c4nc23)c1`, the RP-LC retention time amounted to 1110 s.

Compound `COc1ccc(C2CC(=O)c3cnc(N4CCN(c5ccccn5)CC4)nc3C2)c(OC)c1` (stereo not drawn) returned an RP-LC retention time of 713 s.

In turn, `CCOC(=O)c1cccc(NC(=O)NC2CCN(c3ccc(F)cc3)C2=O)c1` (stereo not drawn) had an RP-LC retention time of 824 s.

The compound `Cc1cc(Cl)ccc1NS(=O)(=O)c1ccc2c(c1)NC(=O)C(C(=O)N1CCCC1)S2` (stereo not drawn) came in with an RP-LC retention time of 827 s.

Regarding `Cc1ccc(-c2noc(CN3C(=O)COc4ccc(C(C)(C)C)cc43)n2)cc1`, the RP-LC retention time was found to be 1310 s.

The compound `CNC(=O)c1noc([C@@H]2CC(F)(F)CN2C(=O)C2CCC2)n1` showed an RP-LC retention time of 669 s.

Compound `O=C(Cn1ncc2c(c1=O)N(CC1CC1)C(=O)CS2)N1CCN(c2ccccc2)CC1` returned an RP-LC retention time of 788 s.

For the compound `COc1ccc(NC(=O)Cn2c(C)cc(-c3nnc(-c4ccccc4)o3)c2C)cc1`, the RP-LC retention time stood at 927 s.

As to `Cc1c(S(=O)(=O)Nc2cccc(-c3ccc4ccccc4n3)c2)cnn1C(F)F`, the RP-LC retention time was determined as 947 s.

In turn, `Cc1cc(C)c(C(=O)N2CCC(CC(=O)NCc3ccccc3C)CC2)[nH]1` gave an RP-LC retention time of 794 s.

In turn, `CCC1CN2C=NC(N3CCN(S(=O)(=O)Cc4cccc(F)c4)CC3)=CC2=N1` (stereo not drawn) came in with an RP-LC retention time of 680 s.

Compound `CCCN1CCN(c2ncc3c(n2)CCN(Cc2ccc(OC(C)C)cc2)C3)CC1` had an RP-LC retention time of 581 s.

As for `CCCC(NC(=O)c1ccncc1)C(=O)Nc1nc2ccccc2[nH]1` (stereo not drawn), the RP-LC retention time came out at 602 s.

`COc1ccc(C(=O)NCCc2ccc(S(N)(=O)=O)cc2)nn1` registered an RP-LC retention time of 604 s.

`COc1ccc(CCS(=O)(=O)NCC2(O)CCOCC2)cc1`: the RP-LC retention time was 758 s.

In the case of `COC(=O)c1ccc2c(=O)n(-c3ccc(Cl)cc3)c(N3CCCN(C)CC3)nc2c1`, the RP-LC retention time stood at 670 s.

As for `COc1cccc(NS(=O)(=O)c2cc(-c3nc(C)c(C(=O)N4CCCC4)s3)cs2)c1`, the RP-LC retention time was determined as 844 s.

As to `CCC(=O)N1CCc2[nH]nc(C(=O)NCCCc3ccccc3)c2C1`, the RP-LC retention time is 709 s.

In turn, `CC(C)CC(=O)Nc1ccc(-n2cnc(C(=O)N3CCC(C)CC3)c2)nc1` came in with an RP-LC retention time of 774 s.

`CN(CC(=O)N1CCN(c2ccccn2)CC1)c1nnc(N2CCCC2=O)s1` came in with an RP-LC retention time of 550 s.

`CCOc1cccc(-c2noc(Cn3ccn(Cc4ccc(Cl)cc4)c(=O)c3=O)n2)c1` gave an RP-LC retention time of 973 s.

In turn, `COc1ccc(NC(=O)N2C[C@@H]3C[C@H](NS(=O)(=O)c4ccccc4)[C@H]2C3)c(OC)c1` displayed an RP-LC retention time of 745 s.

`Cc1ccc(-c2nnc(Cc3nc(-c4ccccc4F)no3)o2)cc1F` registered an RP-LC retention time of 1100 s.

As for `Cc1ccc(-c2ccnc3c(C(=O)NC(C)c4ccncc4)cnn23)cc1C` (stereo not drawn), the RP-LC retention time worked out at 668 s.

`O=C(c1ccc(-c2c(-c3ccc(F)cc3)ncn2C2CCCC2)o1)N1CCN(c2ncccn2)CC1` yielded an RP-LC retention time of 727 s.

As for `CCCNC(=O)C1CCN(S(=O)(=O)c2cc(-c3noc(CC)n3)cs2)CC1`, the RP-LC retention time stood at 830 s.

Regarding `Cc1ccc(S(=O)(=O)N2CCc3nc(-c4ccccc4)ncc3C2)cc1Cl`, the RP-LC retention time amounted to 1240 s.

In turn, `COc1ccc(CNC(=O)Nc2nnc(-c3ccc4c(c3)CCCC4)o2)cc1` returned an RP-LC retention time of 925 s.

As for `CCOc1ccc(-n2ccn3cc(-c4cccc(Cl)c4)nc3c2=O)cc1`, the RP-LC retention time amounted to 947 s.

Take `O=C(CN1CCc2ccccc2C1C(=O)N1CCCCC1)NCc1ccc(F)c(Cl)c1` (stereo not drawn): the RP-LC retention time worked out at 936 s.

Compound `Cc1nn2c(NCc3ccccn3)c3c(nc2c1-c1ccccc1)CCCC3` came in with an RP-LC retention time of 602 s.

As for `CCc1noc(-c2cc(=O)n(CC(=O)Nc3ccccc3Cl)c3ccccc23)n1`, the RP-LC retention time came to 987 s.

As for `Cc1ccc(-n2nc(C)c3sc(N(C)CC(=O)N4CCN(c5ccccn5)CC4)nc32)cc1`, the RP-LC retention time worked out at 709 s.

On to `CNC(=O)C1CCCN(c2nc3ncn(CC(=O)Nc4ccc(F)c(Cl)c4)c(=O)c3s2)C1` (stereo not drawn), for which the RP-LC retention time was found to be 693 s.

Compound `CCC1Oc2ccc(C)cc2N(CC(=O)NCCN2CCc3ccccc3C2)C1=O` (stereo not drawn) showed an RP-LC retention time of 698 s.

The compound `Cc1ccccc1CCNC(=O)c1cc2n(n1)CC(C)(C(=O)NCc1ccc(F)cc1)N(C)C2=O` (stereo not drawn) returned an RP-LC retention time of 821 s.

`Cc1cccc(-c2nc(Nc3ccc(C(=O)O)cc3)c3ccccc3n2)c1` returned an RP-LC retention time of 689 s.

The compound `Cc1ccc(NC(=O)Cn2cc3c(n2)CCC(C)C3)cc1C` (stereo not drawn) gave an RP-LC retention time of 969 s.

On to `COc1nccnc1N1CCC(NC(=O)Cc2ccsc2)C1` (stereo not drawn), for which the RP-LC retention time was found to be 611 s.

The compound `O=C(NCCCN1CCCC1=O)c1csc(N2CCN(c3ccccc3)CC2)n1` gave an RP-LC retention time of 781 s.

For `O=C(NCCn1nnc2cc(C(=O)N3CCCC3)ccc21)Nc1cccc(Br)c1`, the RP-LC retention time was 722 s.

Consider `CCC(=O)N1CCc2sc(S(=O)(=O)N3CCN(c4ccc(OC)cc4)CC3)cc2C1`, for which the RP-LC retention time turned out to be 886 s.

Turning to `O=S(=O)(c1ccc2c(c1)CCC2)N1CCCC1c1nc(-c2ccc(Cl)cc2)no1` (stereo not drawn), the RP-LC retention time amounted to 1310 s.

`CSc1ccc(CCNC(=O)c2nnc(-c3ccc(S(=O)(=O)N4CCCCC4)cc3)o2)cc1` displayed an RP-LC retention time of 1090 s.

As for `CCCN1C(=O)C2(c3ccccc31)c1[nH]c3ccccc3c1CCN2C(=O)NCC` (stereo not drawn), the RP-LC retention time was found to be 793 s.

In the case of `Cc1ccc(Sc2nccnc2N2CCC(C(=O)N3CCN(c4ccccn4)CC3)CC2)cc1`, the RP-LC retention time came to 706 s.

With `COc1ccc(-c2cc(N3CCC(NC(=O)c4cc(OC)c(OC)c(OC)c4)C3)n[nH]2)cc1` (stereo not drawn), the RP-LC retention time is 688 s.

Regarding `O=C1C2CC3N1CCC31c3ccccc3-n3c1c2ccc3=O` (stereo not drawn), the RP-LC retention time was 721 s.

Regarding `COCCN(CC(=O)N1CCc2sccc2C1COc1ccccc1OC)C(=O)C(C)C` (stereo not drawn), the RP-LC retention time was 845 s.

For the compound `CCNC(=O)N1CCCC1c1cc(C)no1` (stereo not drawn), the RP-LC retention time came out at 615 s.

Take `CSc1ccccc1CN1CCC(CNC(=O)C(=O)NCC(F)(F)F)CC1`: the RP-LC retention time was determined as 574 s.

For the compound `O=C(NCc1cccs1)c1cccc2cnccc12`, the RP-LC retention time is 589 s.

`COCCNc1nc(-c2ccc(C(C)(C)C)cc2)nc2ccccc12` gave an RP-LC retention time of 790 s.

For the compound `COc1ccc(NS(=O)(=O)c2cc(-c3[nH]ncc3C(=O)N3CCCC3)oc2C)c(C)c1`, the RP-LC retention time is 707 s.

`Cc1ccc(NC(=O)C2CCN(c3cc(N4CCSCC4)ncn3)CC2)cc1F` yielded an RP-LC retention time of 734 s.

`COc1ccc(-c2nn3c(COc4ccc(Br)cc4)nnc3s2)cc1OC` showed an RP-LC retention time of 980 s.

In turn, `Cc1c(Cl)cccc1NC(=O)N1C[C@@H](F)C[C@H]1C(=O)N1CCc2ccccc2C1` displayed an RP-LC retention time of 864 s.

`O=S(=O)(Cc1ccccc1F)N1CCC(OCCOCc2ccccc2)CC1`: the RP-LC retention time worked out at 1010 s.

In turn, `CCN1CCn2cc(S(=O)(=O)Nc3ccc(OC)cc3)cc2C1=O` came in with an RP-LC retention time of 684 s.

The compound `COc1ccc(NC(=O)Cn2ccnc2-c2ccnc(N3CCOCC3)c2)cc1OC` displayed an RP-LC retention time of 578 s.

`N#Cc1ccc(-c2nc(C3CC(=O)N(c4ccc(Cl)cc4)C3)no2)cc1` (stereo not drawn) yielded an RP-LC retention time of 996 s.

On to `Cc1oc(-c2[nH]ncc2C(=O)N(C)C)cc1S(=O)(=O)NCCC(C)C`, for which the RP-LC retention time came to 692 s.

Regarding `CN(C)c1cc(-n2cnc(C(=O)Nc3ccc4c(c3)OCO4)c2)ncn1`, the RP-LC retention time amounted to 774 s.

The compound `Cc1noc(C)c1S(=O)(=O)N1CCCn2nc(-c3cccs3)cc2C1` displayed an RP-LC retention time of 880 s.

`CCN1CCn2c(nc3cc(C(=O)NCc4ccccc4Br)ccc32)C1=O` yielded an RP-LC retention time of 707 s.

Take `O=C(CC1CCN(C(=O)c2ccc3oc(C4CC4)nc3c2)CC1)N1CCOCC1`: the RP-LC retention time was 619 s.

Take `CC(C)C(=O)Nc1ccc(C2(C(=O)NCc3ccccn3)CCC2)cc1`: the RP-LC retention time is 611 s.

`O=C(Nc1nnc(-c2ccccc2Cl)o1)c1cccc([N+](=O)[O-])c1` returned an RP-LC retention time of 767 s.

Consider `COc1ccc(NC(=O)N2CCCC2c2nc(-c3ccccc3)no2)cc1` (stereo not drawn), for which the RP-LC retention time was found to be 876 s.

In the case of `CN(CCNC(=O)c1c2c(cn(-c3ccccc3)c1=O)C(=O)CC(C)(C)C2)C1CCCCC1`, the RP-LC retention time was determined as 720 s.

(Values after the METLIN SMRT retention time set (Domingo-Almenara et al. 2019).)
